Laboratory results from paper PMC6321136, “Combined In Vitro Studies and in Silico Target Fishing for the Evaluation of the Biological Activities of Diphylleia cymosa and Podophyllum hexandrum” (Molecules, 2018).
Read-outs that look alike come from different tables or passages of the source.

Legend:
[1] = DPPH radical scavenger activity
Method: The evaluation of the antioxidant activity using the 2,2-diphenyl-1-picrylhydrazyl radical (DPPH) was performed according to the method proposed by Mensor et al., with adaptations. The samples were dissolved in MeOH at concentrations ranging from 1.0 to 200 μg/mL. A portion of 250 μL of each sample was added to a 96-well microplate. MeOH and pyrogallol (50 µg/mL) were employed as negative and positive controls, respectively. Then, 100 μL of either MeOH (blank wells) or DPPH solution (120 μg/mL, reaction wells) was added to the microplate. The reading was performed on a microplate reader (EL808IU-Biotek model, Biotek, Winooski, VT, USA), at 5 min intervals for a total of 45 min, at 515 nm. The percentage of radical scavenging activity (%RSA) was calculated using the following equation: % RSA = ((AC − AS)/AC) × 100, where AC is the absorbance of control and AS is the absorbance of samples taken at 35 min. The results were expressed in EC50 (effective concentration for 50% capture of the radicals) determined by non-linear regression using GraphPad Prism, version 6.0.

[2] = test system: Agonist, glucocorticoid receptor (GR); set-up: method as in PubChem Bioassay AID 720691; conditions: ref PubChem Bioassay AID 720691; cited from earlier work
Agonist, p53 = test system: Agonist, p53; set-up: method as in PubChem Bioassay AID 651631; conditions: ref PubChem Bioassay AID 651631; cited from earlier work
[3] = test system: Agonist, thyroid receptor (TR); set-up: method as in PubChem Bioassay AID 743066; conditions: ref PubChem Bioassay AID 743066; cited from earlier work
[4] = test system: Agonist, thyroid stimulating hormone receptor (TSHR); set-up: method as in PubChem Bioassay AID 1224895; conditions: ref PubChem Bioassay AID 1224895; cited from earlier work
[5] = test system: Antagonist, androgen receptor (AR); set-up: method as in PubChem Bioassay AID 743063; conditions: ref PubChem Bioassay AID 743063; cited from earlier work
[6] = test system: Antagonist, peroxisome proliferator-activated receptor gamma (PPARg); set-up: method as in PubChem Bioassay AID 743191; conditions: ref PubChem Bioassay AID 743191; cited from earlier work
[7] = test system: Antagonist, retinoic acid receptor (RAR); set-up: method as in PubChem Bioassay AID 1159555; conditions: ref PubChem Bioassay AID 1159555; cited from earlier work
[8] = test system: Antagonist, thyroid receptor (TR); set-up: method as in PubChem Bioassay AID 743065; conditions: ref PubChem Bioassay AID 743065; cited from earlier work
[9] = test system: Antagonist, thyroid receptor (TR); set-up: method as in PubChem Bioassay AID 743067; conditions: ref PubChem Bioassay AID 743067; cited from earlier work
Anticancer, Leukemia [10] = test system: Anticancer, Leukemia; set-up: method as in PubChem Bioassay AID 250; conditions: ref PubChem Bioassay AID 250; cited from earlier work
Anticancer, Leukemia [11] = test system: Anticancer, Leukemia; set-up: method as in PubChem Bioassay AID 1053195; conditions: ref PubChem Bioassay AID 1053195; cited from earlier work
[12] = test system: Anticancer, non-Hodgkin lymphoma; set-up: method as in PubChem Bioassay AID 651558; conditions: ref PubChem Bioassay AID 651558; cited from earlier work
Anticancer, Sarcoma = test system: Anticancer, Sarcoma; set-up: method as in PubChem Bioassay AID 292; conditions: ref PubChem Bioassay AID 292; cited from earlier work
Anti-Inflammatory model [13] = test system: Anti-Inflammatory model; set-up: method as in PubChem Bioassay AID 435020; conditions: ref PubChem Bioassay AID 435020; cited from earlier work
Anti-Inflammatory model [14] = test system: Anti-Inflammatory model; set-up: method as in PubChem Bioassay AID 489035; conditions: ref PubChem Bioassay AID 489035; cited from earlier work
AP1 Signaling Pathway = test system: AP1 Signaling Pathway; set-up: method as in PubChem Bioassay AID 357; conditions: ref PubChem Bioassay AID 357; cited from earlier work
[15] = test system: Cytotoxicity, Agonist, antioxidant response element (ARE); set-up: method as in PubChem Bioassay AID 743203; conditions: ref PubChem Bioassay AID 743203; cited from earlier work
[16] = test system: Cytotoxicity, Agonist, AP-1; set-up: method as in PubChem Bioassay AID 1159525; conditions: ref PubChem Bioassay AID 1159525; cited from earlier work
[17] = test system: Cytotoxicity, Agonist, hypoxia; set-up: method as in PubChem Bioassay AID 1224844; conditions: ref PubChem Bioassay AID 1224844; cited from earlier work

## COc1cc([C@@H]2c3cc4c(cc3[C@H](O)[C@H]3COC(=O)[C@H]23)OCO4)cc(OC)c1OC [Podophyllotoxin, podophyllotoxin]
[1]
  Antioxidant Activity (IC50-µg/mL) DPPH Radical Sequestration: >200 µg/mL
[2]
  Exper. Activity: Inactive
Agonist, p53
  Exper. Activity: Inactive
[3]
  Exper. Activity: Inactive
[4]
  Exper. Activity: Inactive
[5]
  Exper. Activity: Active
[6]
  Exper. Activity: Inactive
[7]
  Exper. Activity: Active
[8]
  Exper. Activity: Active
[9]
  Exper. Activity: Active
Anticancer, Leukemia [10]
  Exper. Activity: Inactive
Anticancer, Leukemia [11]
  Exper. Activity: Inactive
[12]
  Exper. Activity: Active
Anticancer, Sarcoma
  Exper. Activity: Active
Anti-Inflammatory model [13]
  Exper. Activity: Active
Anti-Inflammatory model [14]
  Exper. Activity: Inactive
AP1 Signaling Pathway
  Exper. Activity: Inactive
[15]
  Exper. Activity: Inactive
[16]
  Exper. Activity: Inactive
[17]
  Exper. Activity: Inactive
